The test system of one series is WM-164. The experiment in a line: Cytotoxicity / cell growth inhibition, SRB assay. Format: cell-based. Conditions: Homo sapiens, WM164, Table 6A.
The subject of a further series is B16-F1 melanoma tumors. The series can be described thus: In vivo anti-tumor activity, B16-F1 melanoma in C57/BL mice. The arrangement: species or system mouse. Conditions: 60 mg/kg i.p. daily, 14 days, C57/BL mice (positive control).
Series [1] is described as follows: Pharmacokinetic study in ICR mice.
Another series concerns PC-3_TxR. The series can be described thus: Cytotoxicity SRB assay, paclitaxel-resistant prostate line. The settings on record: for IC50: Homo sapiens, PC3-TxR, read-out: IC50 ± SEM (nM) PC-3_TxR; for Resistance Factor: PC-3_TxR versus PC-3.
Series [2] in a line: Pharmacokinetic study in Sprague-Dawley rats. The settings on record: rat.
For the next series, the system named is Porcine brain tubulin. The experiment in a line: In vitro microtubule polymerization assay. In kind it is biochemical.
A further series is described as follows: in vivo. Conditions: female, Sprague-Dawley, rat, plasma, 10 mg/kg.
The nature of series [3]: Aqueous solubility, Multiscreen Solubility Filter Plate, PBS pH 7.4, LC-MS/MS. Format: physicochemical. Conditions: HCl salt of 2r.
Series [4] deals with melanoma (B16-F1, A375, WM-164) and prostate cancer (LNCaP, PC-3, DU 145, PPC-1) cell lines. The experiment in a line: Cytotoxicity SRB assay, ranges or averages quoted over the melanoma and prostate cancer cell lines. Format: cell-based. The settings on record: range given; read-out: IC50 (range over the tested cancer cell lines).
The test system of a further series is PC-3. The series can be described thus: Cytotoxicity / cell growth inhibition, SRB assay. Conditions: Homo sapiens, PC-3, 96 h, read-out: IC50 ± SEM (nM) PC-3, SRB assay, 96 h of treatment.
Series [5] relates to T1, tubulin colchicine binding site.
T1 construct: […]; other: SPA
The experiment in a line: [3H]-colchicine competition-binding scintillation proximity assay. Conditions: SPA.

Another series relates to MES-SA/DX5. The experiment in a line: Growth inhibition SRB assay, P-gp over-expressing line. In kind it is cell-based. The settings on record: Homo sapiens, Table 6, read-out: IC50 ± SEM (nM) MES-SA/Dx5.
A further series has as its system WM-164 melanoma cells. The series can be described thus: Microtubule imaging (immunofluorescence, Cellomics Cytoskeleton rearrangement kit). In kind it is cell-based, human. Conditions: WM-164 cells, 18 h. From the text:
Primary antibody for tubulin and fluorescence-labeled secondary antibody were subsequently added to the cells. Cell nuclei were stained by DAPI. Whole Cell Stain Green was also applied to all cells. All images were acquired with an Olympus IX71 inverted fluorescence microscope (Olympus Corp., Tokyo, Japan) with overlays from separate images of tubulin (red), nuclei (blue), and whole cells (green).

Another series deals with OVCAR-8. The experiment in a line: Cytotoxicity SRB assay, MDR model parent line. The settings on record: Homo sapiens. Format: cell-based.
In the next series the test system is PPC-1. The experiment in a line: Cytotoxicity / cell growth inhibition, SRB assay. The settings on record: Homo sapiens.
The subject of another series is MES-SA. The experiment in a line: Growth inhibition SRB assay, parental line. The settings on record: Homo sapiens, Table 6, read-out: IC50 ± SEM (nM) MES-SA. In kind it is cell-based.
For another series, the system named is A375. The series can be described thus: Cytotoxicity / cell growth inhibition, SRB assay. In kind it is cell-based. The settings on record: Homo sapiens, A-375, 96 h, 96 h of treatment, read-out: IC50 ± SEM (nM) A375.
Another series relates to LNCaP. The series can be described thus: Cytotoxicity / cell growth inhibition, SRB assay. The settings on record: Homo sapiens, 96 h, read-out: IC50 ± SEM (nM) LNCaP, SRB assay, 96 h of treatment.
The subject of a further series is B16-F1. The series can be described thus: Cytotoxicity / cell growth inhibition, sulforhodamine B (SRB) assay. Format: cell-based. Conditions: Mus musculus, B16-F1, 96 h, 96 h of treatment, read-out: IC50 ± SEM (nM) B16-F1.
Another series deals with DU 145. The series can be described thus: Cytotoxicity / cell growth inhibition, SRB assay. The settings on record: Homo sapiens, DU-145, 96 h, read-out: IC50 ± SEM (nM) DU 145, SRB assay, 96 h of treatment.
Series [6] concerns A375 human melanoma xenograft. The series can be described thus: In vivo anti-tumor activity, A375 human melanoma xenograft on SHO mice. The settings on record: 25 mg/kg, 31 days.

Like-named read-outs stand apart in the source and are kept apart here.

The text below walks through data of patent publication US9334242B2, “Compounds for treatment of cancer” (GTX, INC., priority 2010, dated 2016).

In the series on WM-164, `O=C(c1ccc(F)cc1)c1csc(-c2ccccc2)n1` [compound 12] came in with an IC50 above 10000 nM.
As to `CN(C)/N=N/c1[nH]cnc1C(N)=O` [DTIC, 5-(3,3,-dimethyl-1-triazenyl)-imidazole-4-carboxamide], the tumor volume reduction with B16-F1 melanoma tumors is recorded as 51%.
In [1] (mouse, i.v. 10 mg/kg), `COc1cc(C(=O)c2csc(Nc3ccc4[nH]ccc4c3)n2)cc(OC)c1OC` [compound 55, (2-(1H-indol-5-ylamino)thiazol-4-yl)(3,4,5-trimethoxyphenyl)methanone] showed a MousePK_IV10mgk_Cl of 40 mLmin/kg and a MousePK_IV10mgk_V of 1.3 Lkg. Also, the MousePK_Bioavailability in [1] (mouse, oral) is reported as 34 %F. In addition, the “oral bioavailability, mice” value in series [1] (p.o. 20 mg/kg versus i.v. 10 mg/kg) came out at 34%. In the series on PC-3_TxR, the IC50 amounted to 29 ± 1 nM and the “Resistance Factor” value was found to be 1.2. For the same compound, the RatPK_IV5mgk_V in series [2] (i.v. 5 mg/kg) came to 1.0 Lkg. Besides, in [2] (p.o. 10 mg/kg), the RatPK_PO10mgk_AUC is 335 µg·min/mL and the RatPK_PO10mgk_Cmax turned out to be 1052 ng/mL. In addition, the “inhibition of tubulin polymerization at 1 μM” value in the series on Porcine brain tubulin turned out to be 11%. This compound also yielded a bioavailability in the series “in vivo” (oral) of 33%. The bioavailability in the series “in vivo” (po) was determined as 33%.
Consider `COc1cc(C(=O)c2csc(-c3ccc(CN)cc3)n2)cc(OC)c1OC.Cl` [2r, (2-(4-(Aminomethyl)phenyl)thiazol-4-yl)(3,4,5-trimethoxyphenyl)methanone hydrochloride], for which, in series [3], the “increase of solubility (fold) over compound 1h” value is “over 35 fold”. Besides, the values for the IC50 (in series [4]; in the series with PC-3) were 13 to 80 nM and 80 nM, respectively.
With `CC(=O)O[C@H]1C(=O)[C@@]2(C)[C@H]([C@H](OC(=O)c3ccccc3)[C@]3(O)C[C@H](OC(=O)[C@H](O)[C@@H](NC(=O)c4ccccc4)c4ccccc4)C(C)=C1C3(C)C)[C@]1(OC(C)=O)CO[C@@H]1C[C@@H]2O` [paclitaxel], the “competition for the tubulin colchicine binding site (in words)” value in series [5] is reported as “flat line”. Also, the IC50 turned out to be 6.6 nM with MES-SA/DX5; 97 ± 1 nM in the series on PC-3_TxR; 4.7 ± 0.1 nM in the series on OVCAR-8 (OVCAR-8, read-out: IC50 (nM) OVCAR-8); 4.7 ± 0.1 nM with OVCAR-8 (OVCAR-8, read-out: IC50 ± SEM (nm) OVCAR-8); 2.3 nM in the series with PPC-1 (PPC-1, 96 h, read-out: IC50 ± SEM (nM) PPC-1); 2.3 ± 0.8 nM with PPC-1 (PPC-1, read-out: IC50 ± SEM (nM) PPC-1). Also, the IC50 was found to be 2.3 ± 0.8 nM with PPC-1 (PPC-1, read-out: IC50 ± SEM (nm) PPC-1) and 2.7 nM in the series on MES-SA. Moreover, the “effect on microtubule arrangement” value in the series on WM-164 melanoma cells is listed as “condensation of microtubules”. For the same compound, the “Resistance Factor” value in the series with PC-3_TxR turned out to be 20.
`O=C(c1ccc2[nH]ccc2c1)c1csc(-c2cc3ccccc3[nH]2)n1` [compound 21, (2-(1H-indol-2-yl)thiazol-4-yl)(1H-indol-5-yl)methanone]: the IC50 in the series with A375 came out at 100 nM; with LNCaP, 103 nM; in the series on B16-F1, 110 nM; in the series with DU 145, 116 nM; in the series with PPC-1 (PPC-1, 96 h, read-out: IC50 ± SEM (nM) PPC-1, SRB assay, 96 h of treatment), 76 nM; in the series with PC-3 it was 87 nM.
Turning to `O=C(c1ccc(F)cc1)c1c[nH]c(-c2ccc(Cl)cc2)n1` [12fb, (2-(4-chlorophenyl)-1H-imidazol-4-yl)(4-fluorophenyl)methanone], the “tolerability (body weight, physical activity)” value in [6] was “well tolerated”.
